Data on 1 compound can be found in patent US20230381210A1, “COMPOSITION FOR PREVENTION, AMELIORATION, OR TREATMENT OF HYPERSENSITIVITY IMMUNE DISEASE CONTAINING GALACTOSE” (Quorum Bio Co., Ltd., priority 2020, published 2023).

Format in all cases: in vivo, BALB/c mice
For experiment [1], the system named is DNCB-induced atopic dermatitis mouse model. The experiment can be described thus: Total IgE in serum by ELISA in DNCB-induced atopic dermatitis mouse model. The following applies: oral 200 mg/kg daily (G6) vs negative control (G3); day 16; FIG. 7. The protocol:
An animal experiment in the following example was performed in accordance with the regulations set forth by Chonnam National University IACUC in an environment maintained at 50±5% humidity and 24˜26° C. temperature. 7-week-old male BALB/c mice (Damool Science Co., Ltd.) bred as a test animal were used, and after being acclimatized in a laboratory environment for one week while supplying enough feed and water, they were used in the experiment. Non-allergenic, dust-free, non-toxic, absorbent and pathogen-free bedding was used, and the cage was changed once a week to maintain a clean environment, and water was freely supplied with a water bottle. […] On the day 16 after the first DNCB application (just before necropsy), ear thickness and clinical symptoms of the mice were measured. At autopsy (16 days after first DNCB application), whole blood was collected, and then serum was separated and the IgE level in serum was measured by ELISA. As total IgE in serum was increased, when DNCB was treated to skin in the DNCB-induced atopic dermatitis mouse model, in the present example, by collecting blood right before autopsy of the mice prepared in Reference example 1 and then isolating serum and evaluating the total amount of IgE (ug/ml) in serum through ELISA method, a protective effect of atopic dermatitis was indirectly evaluated.
(An ELISA detects its analyte on a solid surface through an enzyme-linked reagent.)

Experiment [2] shares this test system. The experiment can be described thus: Spleen and lymph node weight in DNCB-induced atopic dermatitis mouse model. The following applies: oral 100 or 200 mg/kg daily (G5, G6) vs negative control (G3). The procedure:
An animal experiment in the following example was performed in accordance with the regulations set forth by Chonnam National University IACUC in an environment maintained at 50±5% humidity and 24˜26° C. temperature. 7-week-old male BALB/c mice (Damool Science Co., Ltd.) bred as a test animal were used, and after being acclimatized in a laboratory environment for one week while supplying enough feed and water, they were used in the experiment. Non-allergenic, dust-free, non-toxic, absorbent and pathogen-free bedding was used, and the cage was changed once a week to maintain a clean environment, and water was freely supplied with a water bottle. Galactose was pre-administered for 2 weeks from the period when the prepared mice were 8-week-old. Pre-administration was performed by oral administration once a day for 2 weeks, and the dose of galactose was 100 mg/kg or 200 mg/kg, respectively. As a control group, mice administered (orally) with PBS for the same period were prepared. […] On the day 16 after the first DNCB application (just before necropsy), ear thickness and clinical symptoms of the mice were measured. […] In the present example, by measuring the weight of the spleen and armpit lymph nodes right before autopsy of the mice prepared in Reference example 1, a protective effect of atopic dermatitis was indirectly evaluated.

The test system is the same in experiment [3]. The experiment in a line: Visual confirmation of skin lesions in DNCB-induced atopic dermatitis mouse model. To be noted: oral 100 or 200 mg/kg daily (G5, G6) vs negative control (G3, PBS); FIG. 2, n=2 per group. The protocol:
An animal experiment in the following example was performed in accordance with the regulations set forth by Chonnam National University IACUC in an environment maintained at 50±5% humidity and 24˜26° C. temperature. 7-week-old male BALB/c mice (Damool Science Co., Ltd.) bred as a test animal were used, and after being acclimatized in a laboratory environment for one week while supplying enough feed and water, they were used in the experiment. Non-allergenic, dust-free, non-toxic, absorbent and pathogen-free bedding was used, and the cage was changed once a week to maintain a clean environment, and water was freely supplied with a water bottle. Galactose was pre-administered for 2 weeks from the period when the prepared mice were 8-week-old. Pre-administration was performed by oral administration once a day for 2 weeks, and the dose of galactose was 100 mg/kg or 200 mg/kg, respectively. As a control group, mice administered (orally) with PBS for the same period were prepared. After 2 weeks of pre-administration, the hairs on the mouse head and back of the mice were removed using a clipper and depilatory cream. […] On the day 16 after the first DNCB application (just before necropsy), ear thickness and clinical symptoms of the mice were measured. […]

The test system is the same in experiment [4]. The experiment in a line: Clinical scoring (rubefaction, keratin formation, crust formation) in DNCB-induced atopic dermatitis mouse model. The following applies: oral 100 or 200 mg/kg daily (G5, G6) vs negative control (G3); FIG. 4. The procedure:
An animal experiment in the following example was performed in accordance with the regulations set forth by Chonnam National University IACUC in an environment maintained at 50±5% humidity and 24˜26° C. temperature. 7-week-old male BALB/c mice (Damool Science Co., Ltd.) bred as a test animal were used, and after being acclimatized in a laboratory environment for one week while supplying enough feed and water, they were used in the experiment. Non-allergenic, dust-free, non-toxic, absorbent and pathogen-free bedding was used, and the cage was changed once a week to maintain a clean environment, and water was freely supplied with a water bottle. […] On the day 16 after the first DNCB application (just before necropsy), ear thickness and clinical symptoms of the mice were measured. The mice prepared in Reference example 1 were evaluated for clinical symptoms (rubefaction, keratin formation (dryness degree), crust formation), and ear thickness was measured and then recorded three times a week (Monday, Wednesday, Friday). Ear thickness was measured three times a week using Caliper (R12-1A, Ozaki, Tokyo, Japan). […] For the mice prepared in Reference example 1, the clinical symptoms of the three items (rubefaction, keratin formation (dryness), crust formation) were scored on the basis of the following: 0 point; none, 1 point; mild, 2 points; moderate, 3 points; severe.

Experiment [5] has the same test system. The experiment in a line: Ear thickness measurement in DNCB-induced atopic dermatitis mouse model. The following applies: oral 100 or 200 mg/kg daily (G5, G6); FIG. 3. The protocol: An animal experiment in the following example was performed in accordance with the regulations set forth by Chonnam National University IACUC in an environment maintained at 50±5% humidity and 24˜26° C. temperature. 7-week-old male BALB/c mice (Damool Science Co., Ltd.) bred as a test animal were used, and after being acclimatized in a laboratory environment for one week while supplying enough feed and water, they were used in the experiment. Non-allergenic, dust-free, non-toxic, absorbent and pathogen-free bedding was used, and the cage was changed once a week to maintain a clean environment, and water was freely supplied with a water bottle. Galactose was pre-administered for 2 weeks from the period when the prepared mice were 8-week-old. Pre-administration was performed by oral administration once a day for 2 weeks, and the dose of galactose was 100 mg/kg or 200 mg/kg, respectively. […] On the day 16 after the first DNCB application (just before necropsy), ear thickness and clinical symptoms of the mice were measured. The mice prepared in Reference example 1 were evaluated for clinical symptoms (rubefaction, keratin formation (dryness degree), crust formation), and ear thickness was measured and then recorded three times a week (Monday, Wednesday, Friday). Ear thickness was measured three times a week using Caliper (R12-1A, Ozaki, Tokyo, Japan). […]

As for `O=C[C@H](O)[C@@H](O)[C@@H](O)[C@H](O)CO` [galactose], the “total amount of IgE in serum” value in experiment [1] is given as “significantly reduced”. The weight of spleen result in experiment [2] (FIG. 5) is “generally reduced”. Also, the “weight of lymph nodes (armpit)” value in experiment [2] (FIG. 6) is recorded as “generally reduced”. Moreover, in experiment [3], the “degree of crust formation” value was “reduced” and the “degree of skin rubefaction” value is recorded as “suppressed”. The “score of clinical symptoms (sum of rubefaction, keratin formation, crust formation scores)” value in experiment [4] is given as “significantly reduced”. The ear thickness result in experiment [5] was “significantly reduced”.
